Data: patent US5792745A, “Use of peptides for altering bone resorption” (La Jolla Cancer Research Center, priority 1995, dated 1998)
Entries after “also recorded” stand apart in the source; their conditions may differ. Where a SMILES comes first, the peptide text is derived from it. Bridges are numbered along the chain shown (N, C = ends). [ ]: non-standard residue; d: D form. Tic = O=C(O)[C@@H]1Cc2ccccc2CN1; Mpa = O=C(O)CCS

Experiments:
[1] = test system: parathyroid hormone-induced hypercalcemia; experiment: parathyroid hormone-induced hypercalcemia in mice; assay type: in vivo; settings: parathyroidectomized mice, 4 hr peptide infusion, FIG. 9
α5 β1 (FnR) = target: T1, α5 β1 (FnR) (Homo sapiens, UniProt P05556+P08648); experiment: α5 β1 ELISA (competitive); assay type: binding; settings: comparison of ELISA values
T1 construct: Fibronectin receptor (FnR) was purified from 100 mM octyl-glucopyranoside-extracted human placenta; from tissue
Experimental: Peptide binding to purified human αv β5 and αv β3, which are VnR's, and to α5 β1, which is a FnR, was determined using competitive ELISA assays as described below. If desired, an αIIb β3 ELISA can be performed as described in W091/15515.
Peptide binding to purified human α5 β1 (FnR) also was determined using a competitive ELISA. In these assays, Fn was immobilized to the wells and the binding of solubilized FnR in the presence of various concentrations of a peptide analogue was determined using a mouse monoclonal antibody to human β1 (clone P4C10; Gibco) and specific binding was visualized using a second antibody.
Microtiter wells were coated at RT by adding 100 μl of 2 μg/ml human Fn in TBS and incubating the plates overnight at 4° C. Following incubation, the plates were washed 3× with TBS/"TWEEN 20" (polyoxyethylenesorbitan monolaurate). RGD peptides were diluted in TBS containing 20 mM OG and 2 mM MnCl2 and 50 μl was added to wells at 10-fold serial dilutions. FnR was diluted in the same buffer and 50 μl was added to each well.
The plates were incubated for 3 hr at RT and washed with 300 μl TBS/"TWEEN 20" (polyoxyethylenesorbitan monolaurate). Bound receptor was incubated with 100 μl of the monoclonal anti-β1 antibody for 2 hr, then washed 3× with TBS/"TWEEN 20" (polyoxyethylenesorbitan monolaurate). […] The amount of bound second antibody was determined as described above. […]

[2] = test system: integrin receptors / osteoclasts; experiment: series of assays of Examples II and III for potency and selectivity (summary); settings: for activity of minimal-element peptides (in words): FIG. 2
From the text: Peptides of the RGDNTic (SEQ ID NO: 31) pharmacophore group are characterized, in general, as having increased potency, whereas the peptides of the pharmacophore RGDDV (SEQ ID NO: 1) group generally have higher receptor selectivity. […] As used herein, the term "potency" or "potent" means that a peptide of the invention is active at a relatively low concentration in the assays described in Examples II and III. A potent peptide of the invention can be identified, for example, using the assays described in Examples II and III.
The present invention also provides a series of in vitro and in vivo assays useful for screening a panel of peptides in order to identify peptides that can reduce or inhibit bone resorption or that can alter integrin binding such as αv β3 integrin receptor-mediated binding. Such peptides can include, for example, peptides within the pharmacophore groups exemplified herein or peptides within other pharmacophore groups. The series of assays disclosed herein is particularly useful for determining the selectivity and potency of a peptide for reducing or inhibiting bone resorption. The selectivity of a peptide for an integrin receptor involved in osteoclast binding to bone can be determined, for example, using the integrin receptor assays and cell attachment and detachment assays described herein. Use of cell-based assays in conjunction with receptor-based assays is informative because the receptor ELISAs provide useful information regarding the binding characteristics of a particular peptide toward a particular integrin and because the cell-based assays confirm that those characteristics are relevant to the αv β3 receptor or to bone resorption.

αv β3 receptor = target: T2, αv β3 receptor (Homo sapiens, UniProt P05106+P06756); experiment: αv β3 ELISA (competitive); assay type: binding; settings: ELISA / JY cell IC50 values of FIG. 2 compared
T2 construct: The αv β3 receptor was purified from octyl-glucopyranoside-extracted human placenta; from tissue
Experimental: Peptide binding to purified αv β3 receptor was determined by using a competitive ELISA, in which αv β3 receptor was immobilized and the binding of solubilized VN, in the presence of various concentrations of peptide analogue, was detected using a monoclonal mouse IgG anti-VN antibody and a labelled anti-mouse IgG conjugate.
50 μl of Vn in the same buffer then was added to each well.
The development process was stopped by adding 50 μl to 4N H2 SO4 to each well. The plates were read at 490 nm and the data analyzed by four parameter fit.

chick osteoclasts = experiment: chick cell detachment assay (osteoclasts vs total cells); assay type: cell-based; settings: FIG. 5
rat osteoclasts = experiment: rat osteoclast attachment assay compared with MG63 / NRK cell attachment; assay type: cell-based; settings: FIGS. 7 and 8 compared
Experimental: 3. Rat osteoclast attachment assay
To determine the effect of a peptide on the attachment of rat osteoclasts in vitro, 100 μl aliquots of the rat pup bone cell suspension described in Example II.B.2., above, were added in triplicate to 96 well MAXISORP plates coated with specific substrates or with FCS. Substrate coated plates were used to determine the ability of peptides to inhibit attachment or induce detachment of an osteoclast from a ligand such as vitronectin, fibronectin, osteopontin or collagen I (Collaborative Research), which are ligands present in bone. Substrates were added to 96 well plates (50 μl of a 5-10 μg/ml solution in sodium carbonate, pH 9.5) and incubated for 2 hr at 37° C. For FCS control wells, 100 μl 10% FCS was added. Wells were aspirated, then washed 2× with PBS and blocked with 1% bovine serum albumin in PBS for 2 hr at 37° C. Wells were aspirated and washed again 2× with PBS. Cells were seeded in duplicate at 4×10^4 cells/well. […]
Following incubation, the medium and nonadherent cells were removed by aspiration from each well. […] Adherent osteoclasts were counted by light microscopy. […]
MG63 and NRK cell lines were purchased from ATTC (Rockville, Md.). […] Following staining, the stain was extracted with 20% acetic acid and the OD562 of the extracted stain was determined. […]
Selectivity of a peptide can be determined by comparing the results of FIGS. 7 and 8 (see, also FIG. 2).

osteoclasts = settings: cited from earlier work
bone resorption = settings: cited from earlier work
neointimal hyperplasia = settings: rabbit, in vivo; cited from earlier work

**Q.** Which “PTH-induced change in serum ionized calcium” value [1] does the source give for `CC(C)[C@@H]1NC(=O)[C@H](CC(=O)O)NC(=O)[C@H](CC(=O)O)NC(=O)CNC(=O)[C@H](CCCNC(=N)N)NC(=O)CCSSC[C@@H](C(N)=O)NC1=O` [compound 191] ([Mpa]RGDDVC-NH2; disulfide 1-7) here?
**A.** Its value is “decreased the PTH-induced rise in serum ionized calcium in a dose responsive manner”.

**Q.** Which “receptor selectivity for α5 β1 versus αv β5” value (α5 β1 (FnR)) does the source give for `C[C@@H]1NC(=O)[C@H](CCCNC(=N)N)NC(=O)CNC(=O)CC[C@@H](C(N)=O)NC(=O)[C@@H]2CCCN2C(=O)[C@H](CC(N)=O)NC(=O)[C@H](CC(=O)O)NC(=O)CNC(=O)[C@H](CCCNC(=N)N)NC1=O` [compound 390] (GRARGDNPE-NH2; lactam N-9) here?
**A.** Its value is “more selective toward α5 β1 than toward αv β5”.

**Q.** Which “activity of minimal-element peptides (in words)” value [2] does the source give for `CC(=O)N[C@H]1CSSC[C@@H](C(N)=O)NC(=O)[C@@H]2Cc3ccccc3CN2C(=O)[C@H](CO)NC(=O)[C@H](CC(=O)O)NC(=O)CNC(=O)[C@H](CCCNC(=N)N)NC1=O` [compound 812, Ac-CRGDS(Tic)C-NH2] (Ac-CRGDS[Tic]C-NH2; disulfide 1-7) here?
**A.** The value was “demonstrate activity”.

**Q.** For `N=C(N)NCCC[C@@H]1NC(=O)CC[C@@H](C(N)=O)NC(=O)[C@@H]2CCCN2C(=O)[C@H](CO)NC(=O)[C@H](CC(=O)O)NC(=O)CNC1=O` [compound 825] (RGDSPE-NH2; lactam N-6), which “receptor selectivity for α5 β1 versus αv β5” value (α5 β1 (FnR)) is on record?
**A.** The value was “more selective toward α5 β1 than toward αv β5”.

**Q.** What does the source list for `CC(C)[C@@H]1NC(=O)[C@H](CC(=O)O)NC(=O)[C@H](CC(=O)O)NC(=O)CNC(=O)[C@H](CCCNC(=N)N)NC(=O)CNC(=O)C[C@@H](C(N)=O)NC1=O` [peptide 368] (GRGDDVD-NH2; lactam N-7)?
**A.** receptor selectivity for αv β3 versus αv β5 and α5 β1 (comparison of IC50 values) (αv β3 receptor): receptor selective for αv β3; also recorded: selective peptide; both potent and selective (summary classification) [2]: both potent and selective; receptor selectivity (summary classification) [2]: particularly receptor selective

**Q.** Which results are given for `CC(C)[C@@H]1NC(=O)[C@H](CC(=O)O)NC(=O)[C@H](CC(=O)O)NC(=O)CNC(=O)[C@H](CCCNC(=N)N)NC(=O)CC[C@@H](C(N)=O)NC1=O` [peptide 386, RGDDVE-NH2] (RGDDVE-NH2; lactam N-6)?
**A.** selective detachment of osteoclasts versus other cell types (chick osteoclasts): caused selective detachment of osteoclasts as compared to other cell types; selectivity: osteoclast attachment versus MG63 or NRK attachment (rat osteoclasts): selective; PTH-induced change in serum ionized calcium [1]: relatively low level of serum calcium; activity of minimal-element peptides (in words) [2]: demonstrate activity

**Q.** For Echistatin, which “binding to osteoclasts (literature)” value (osteoclasts) is on record?
**A.** Its value is “binds to osteoclasts in a nonselective manner”.

**Q.** What about the “inhibition of bone resorption in vitro (literature)” value (osteoclasts; in vitro) of the same compound?
**A.** Its value is “inhibits bone resorption in vitro”.

**Q.** What about the “inhibition of bone resorption in vivo (literature)” value (bone resorption) of the same compound?
**A.** The value was “inhibits bone resorption”.

**Q.** With G(Pen)GRGDSPCA as the compound, how does the “inhibition of neointimal hyperplasia (literature)” value (neointimal hyperplasia) read?
**A.** Its value is “can inhibit neointimal hyperplasia”.
